We go through 3 compounds from ChEMBL document CHEMBL4052702 (Bioorg Med Chem Lett, 2017).

Experiment [1] in a line: Inhibition of HDAC in human HeLa-S3 cells lysates pre-incubated for 15 mins before HDAC-Glo I/II substrate addition and measured after 30 mins post substrate addition. The experiment is classed as cell-based.
Experiment [2] deals with T1, Histone deacetylase 1 (Homo sapiens, UniProt Q13547). Put plainly: Inhibition of HDAC1 (unknown origin) by ELISA-based assay. For orientation: In an ELISA, binding on a coated surface is turned into a signal by an enzyme label.
T1 sequence (Q13547 whole entry): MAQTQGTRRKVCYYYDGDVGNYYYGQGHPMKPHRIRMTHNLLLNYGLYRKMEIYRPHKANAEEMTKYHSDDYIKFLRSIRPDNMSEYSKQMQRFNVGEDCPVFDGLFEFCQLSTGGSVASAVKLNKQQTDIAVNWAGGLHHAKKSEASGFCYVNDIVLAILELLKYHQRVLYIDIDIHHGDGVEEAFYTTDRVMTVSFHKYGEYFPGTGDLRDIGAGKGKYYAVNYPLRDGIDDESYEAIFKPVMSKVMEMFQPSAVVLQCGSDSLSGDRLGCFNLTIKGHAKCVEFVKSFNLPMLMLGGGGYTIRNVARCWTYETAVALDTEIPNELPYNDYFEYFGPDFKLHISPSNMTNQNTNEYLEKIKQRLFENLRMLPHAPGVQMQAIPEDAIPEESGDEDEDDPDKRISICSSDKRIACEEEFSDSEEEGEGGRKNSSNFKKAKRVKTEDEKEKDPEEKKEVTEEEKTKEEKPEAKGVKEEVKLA
The target of experiment [3] is T2, Histone deacetylase 3 (Homo sapiens, UniProt O15379). Put plainly: Inhibition of HDAC3 (unknown origin) by ELISA-based assay.
T2 sequence (O15379 whole entry): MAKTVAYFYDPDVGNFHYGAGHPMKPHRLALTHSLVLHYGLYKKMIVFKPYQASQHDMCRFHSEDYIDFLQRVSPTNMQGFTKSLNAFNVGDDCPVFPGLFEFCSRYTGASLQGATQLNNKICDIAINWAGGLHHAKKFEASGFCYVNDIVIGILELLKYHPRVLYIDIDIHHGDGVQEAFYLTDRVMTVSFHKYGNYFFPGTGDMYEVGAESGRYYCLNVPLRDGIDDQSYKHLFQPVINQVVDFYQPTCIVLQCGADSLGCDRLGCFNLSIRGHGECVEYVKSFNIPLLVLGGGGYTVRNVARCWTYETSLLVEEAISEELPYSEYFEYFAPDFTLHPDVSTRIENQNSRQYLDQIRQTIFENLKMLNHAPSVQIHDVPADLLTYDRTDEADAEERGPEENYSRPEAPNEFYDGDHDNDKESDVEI
The target in experiment [4] is T3, Protein deacetylase HDAC6 (Homo sapiens, UniProt Q9UBN7).
T3 sequence (Q9UBN7 whole entry): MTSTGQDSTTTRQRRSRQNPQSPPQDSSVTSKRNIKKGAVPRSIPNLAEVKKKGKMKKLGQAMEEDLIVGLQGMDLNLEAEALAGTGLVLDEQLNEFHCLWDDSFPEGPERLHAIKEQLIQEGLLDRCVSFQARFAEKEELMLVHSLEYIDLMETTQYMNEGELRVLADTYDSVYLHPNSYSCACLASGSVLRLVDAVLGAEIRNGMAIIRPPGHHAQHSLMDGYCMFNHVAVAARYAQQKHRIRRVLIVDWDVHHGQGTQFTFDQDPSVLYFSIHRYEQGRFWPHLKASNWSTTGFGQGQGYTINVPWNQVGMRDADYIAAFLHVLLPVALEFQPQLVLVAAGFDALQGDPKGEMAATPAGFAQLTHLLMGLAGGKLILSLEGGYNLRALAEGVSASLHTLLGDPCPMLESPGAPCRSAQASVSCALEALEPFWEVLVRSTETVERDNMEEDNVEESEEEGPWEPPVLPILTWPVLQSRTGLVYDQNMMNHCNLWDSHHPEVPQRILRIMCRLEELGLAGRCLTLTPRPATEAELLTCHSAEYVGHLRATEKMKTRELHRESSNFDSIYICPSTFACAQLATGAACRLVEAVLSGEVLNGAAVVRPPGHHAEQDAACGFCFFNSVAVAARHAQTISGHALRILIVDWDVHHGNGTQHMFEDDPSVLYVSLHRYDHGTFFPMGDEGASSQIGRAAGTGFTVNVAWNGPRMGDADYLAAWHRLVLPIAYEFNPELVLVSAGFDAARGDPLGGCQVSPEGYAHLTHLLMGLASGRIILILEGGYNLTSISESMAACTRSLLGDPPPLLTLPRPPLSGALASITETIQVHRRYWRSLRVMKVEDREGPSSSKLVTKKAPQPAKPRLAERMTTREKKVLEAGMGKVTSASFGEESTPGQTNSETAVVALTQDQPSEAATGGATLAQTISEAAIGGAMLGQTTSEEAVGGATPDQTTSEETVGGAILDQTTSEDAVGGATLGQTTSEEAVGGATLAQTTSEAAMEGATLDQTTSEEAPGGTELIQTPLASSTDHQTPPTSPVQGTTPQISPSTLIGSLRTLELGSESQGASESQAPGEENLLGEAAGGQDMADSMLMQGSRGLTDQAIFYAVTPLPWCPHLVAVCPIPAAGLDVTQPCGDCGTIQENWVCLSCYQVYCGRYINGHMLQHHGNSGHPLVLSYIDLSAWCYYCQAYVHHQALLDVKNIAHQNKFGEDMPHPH
Put plainly: Inhibition of HDAC6 (unknown origin) by ELISA-based assay.

A further experiment has as its target T4, Histone deacetylase 8 (Homo sapiens, UniProt Q9BY41).
T4 sequence (Q9BY41 whole entry): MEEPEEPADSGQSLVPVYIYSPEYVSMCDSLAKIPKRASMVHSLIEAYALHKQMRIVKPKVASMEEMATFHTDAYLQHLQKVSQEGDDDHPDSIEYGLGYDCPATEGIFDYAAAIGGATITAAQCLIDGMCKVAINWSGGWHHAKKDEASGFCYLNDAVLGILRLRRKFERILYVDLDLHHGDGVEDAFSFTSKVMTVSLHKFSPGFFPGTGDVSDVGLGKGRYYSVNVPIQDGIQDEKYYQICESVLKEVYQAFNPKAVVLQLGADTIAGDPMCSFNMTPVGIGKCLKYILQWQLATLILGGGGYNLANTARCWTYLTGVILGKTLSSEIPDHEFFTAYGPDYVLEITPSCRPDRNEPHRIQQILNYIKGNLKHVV
Put plainly: Inhibition of HDAC8 (unknown origin) by ELISA-based assay.

Experiment [5] addresses T1, Histone deacetylase 1. Put plainly: Inhibition of HDAC1 (unknown origin) assessed as remaining enzyme activity at 2 x 10^-6 M by ELISA-based assay.
Experiment [6] has as its target T1, Histone deacetylase 1. Put plainly: Inhibition of HDAC1 (unknown origin) assessed as remaining enzyme activity at 5 x 10^-7 M by ELISA-based assay.
The target of experiment [7] is T5, Histone deacetylase 2 (Homo sapiens, UniProt Q92769). Put plainly: Inhibition of HDAC2 (unknown origin) assessed as remaining enzyme activity at 4 x 10^-6 M by ELISA-based assay.
T5 sequence (Q92769 whole entry): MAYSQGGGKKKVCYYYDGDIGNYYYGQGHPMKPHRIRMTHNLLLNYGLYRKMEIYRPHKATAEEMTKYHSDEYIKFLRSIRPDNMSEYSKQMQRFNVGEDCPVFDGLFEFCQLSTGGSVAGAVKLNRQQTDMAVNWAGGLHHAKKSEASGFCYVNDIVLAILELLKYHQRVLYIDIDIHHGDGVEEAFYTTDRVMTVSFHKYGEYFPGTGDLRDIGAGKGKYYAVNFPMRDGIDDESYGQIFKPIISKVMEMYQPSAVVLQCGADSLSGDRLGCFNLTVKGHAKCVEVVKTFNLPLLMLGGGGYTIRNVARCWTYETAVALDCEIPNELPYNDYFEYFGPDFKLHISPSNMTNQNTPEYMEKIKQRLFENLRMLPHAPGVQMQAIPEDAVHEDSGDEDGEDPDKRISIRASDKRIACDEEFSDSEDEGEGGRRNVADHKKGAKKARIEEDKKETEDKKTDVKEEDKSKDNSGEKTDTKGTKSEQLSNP
Experiment [8] addresses T5, Histone deacetylase 2. Put plainly: Inhibition of HDAC2 (unknown origin) assessed as remaining enzyme activity at 2 x 10^-6 M by ELISA-based assay.
The target in experiment [9] is T2, Histone deacetylase 3. Put plainly: Inhibition of HDAC3 (unknown origin) assessed as remaining enzyme activity at 4 x 10^-6 M by ELISA-based assay.
The target in experiment [10] is T2, Histone deacetylase 3. Put plainly: Inhibition of HDAC3 (unknown origin) assessed as remaining enzyme activity at 2 x 10^-6 M by ELISA-based assay.
Experiment [11] concerns the target T6, Protein deacetylase HDAC6 (Homo sapiens) (UniProt Q9UBN7).
T6 sequence (whole entry): T3 sequence (Q9UBN7 whole entry)
Put plainly: Inhibition of HDAC6 (unknown origin) assessed as remaining enzyme activity at 8 x 10^-7 M by ELISA-based assay.

Experiment [12] has as its target T6, Protein deacetylase HDAC6 (Homo sapiens). Put plainly: Inhibition of HDAC6 (unknown origin) assessed as remaining enzyme activity at 4 x 10^-7 M by ELISA-based assay.
Experiment [13] shares this target. Put plainly: Inhibition of HDAC6 (unknown origin) assessed as remaining enzyme activity at 2 x 10^-7 M by ELISA-based assay.
Experiment [14] shares this target. Put plainly: Inhibition of HDAC6 (unknown origin) assessed as remaining enzyme activity at 1 x 10^-7 M by ELISA-based assay.
The target is the same in experiment [15]. Put plainly: Inhibition of HDAC6 (unknown origin) assessed as remaining enzyme activity at 5 x 10^-8 M by ELISA-based assay.
Experiment [16] concerns the target T7, Histone deacetylase 8 (Homo sapiens) (UniProt Q9BY41).
T7 sequence (whole entry): T4 sequence (Q9BY41 whole entry)
Put plainly: Inhibition of HDAC8 (unknown origin) assessed as remaining enzyme activity at 1.6 x 10^-6 M by ELISA-based assay.

In experiment [17] the target is T7, Histone deacetylase 8 (Homo sapiens). Put plainly: Inhibition of HDAC8 (unknown origin) assessed as remaining enzyme activity at 8 x 10^-7 M by ELISA-based assay.
Experiment [18] shares this target. Put plainly: Inhibition of HDAC8 (unknown origin) assessed as remaining enzyme activity at 4 x 10^-7 M by ELISA-based assay.
Experiment [19] shares this target. Put plainly: Inhibition of HDAC8 (unknown origin) assessed as remaining enzyme activity at 2 x 10^-7 M by ELISA-based assay.
The target is the same in experiment [20]. Put plainly: Inhibition of HDAC8 (unknown origin) assessed as remaining enzyme activity at 1 x 10^-7 M by ELISA-based assay.
For experiment [21], the system named is Jurkat. Put plainly: cells. The experiment is classed as functional. As to conditions: Homo sapiens, 44 h.
Experiment [22] relates to Jurkat. Put plainly: cells. The experiment is classed as functional. As to conditions: Homo sapiens, 44 h. The source holds these as a separate data set.

Molecules are shown by their SMILES.

In the case of `O=C(CCCC(CCC(=O)Nc1ccccc1)Cc1ccccc1)NO` (centres undefined), the IC50 amounted to 6.2 µM in [1]; 2.9 µM on Histone deacetylase 1 [2]; 5.8 µM against Histone deacetylase 3 [3]; 0.27 µM in experiment [4]; 0.38 µM against Histone deacetylase 8. Moreover, the Activity came out at 54% at Histone deacetylase 1 [5]; 84% at Histone deacetylase 1 [6]; 49% at Histone deacetylase 2 [7]; 62% on Histone deacetylase 2 [8]; 53% on Histone deacetylase 3 [9]; 85% at Histone deacetylase 3 [10]. Further, the Activity in experiment [11] worked out at 26%; in [12], 43%; in experiment [13], 54%; in [14], 76%; in experiment [15] it was 83%; in [16], 19%. Besides, the Activity in experiment [17] is 33%; in experiment [18] it was 47%; in experiment [19] it was 65%; in [20] it was 82%. The viability at 1 µM in the experiment on Jurkat [21] was determined as 71%. Moreover, in the experiment with Jurkat [22], the viability at 10 µM was found to be 50%.
As for `CCCCC(CCCC(=O)NO)CCC(=O)Nc1ccccc1` (centres undefined), the IC50 worked out at 5 µM in experiment [1]; 1.1 µM against Histone deacetylase 1 [2]; 1.6 µM on Histone deacetylase 3 [3]; 0.32 µM in experiment [4]; 0.43 µM at Histone deacetylase 8. Also, the Activity stood at 37% at Histone deacetylase 1 [5]; 68% on Histone deacetylase 1 [6]; 25% at Histone deacetylase 2 [7]; 38% at Histone deacetylase 2 [8]; 27% at Histone deacetylase 3 [9]; 44% at Histone deacetylase 3 [10]. For the same compound, the Activity is 28% in experiment [11]; 48% in [12]; 60% in [13]; 70% in experiment [14]; 90% in experiment [15]; 22% in experiment [16]. Further, the Activity worked out at 35% in experiment [17], 50% in [18], 69% in [19] and 83% in [20]. Further, in the experiment on Jurkat [21], the viability at 1 µM was found to be 67%. Besides, the viability at 10 µM with Jurkat [22] was determined as 39%.
As for `CCCCCCC(CCCC(=O)NO)CCC(=O)Nc1ccccc1` (centres undefined), the IC50 in experiment [1] worked out at 6.5 µM; against Histone deacetylase 1 [2] it was 2.1 µM; against Histone deacetylase 3 [3], 2.9 µM; in [4], 0.41 µM; at Histone deacetylase 8 it was 0.42 µM. Further, the Activity was 54% at Histone deacetylase 1 [5]; 77% on Histone deacetylase 1 [6]; 41% at Histone deacetylase 2 [7]; 57% on Histone deacetylase 2 [8]; 39% at Histone deacetylase 3 [9]; 67% at Histone deacetylase 3 [10]. The Activity in experiment [11] was determined as 34%; in experiment [12] it was 54%; in experiment [13], 66%; in experiment [14], 69%; in experiment [15] it was 82%; in [16] it was 21%. The Activity in [17] was 35%; in experiment [18], 51%; in [19], 70%; in experiment [20], 78%. In addition, the viability at 1 µM in the experiment with Jurkat [21] worked out at 101%. Besides, in the experiment with Jurkat [22], the viability at 10 µM worked out at 24%.

As a reminder, the IC50 is the concentration needed to halve the response being measured. A higher IC50 goes with weaker potency in that assay. In general, viability refers to a read-out of living cells in per cent, often relative to untreated cells.
